Laboratory results published in ChEMBL document CHEMBL3632492, “Substituted 2-arylquinazolinones: Design, synthesis, and evaluation of cytotoxicity and inhibition of topoisomerases” (Eur J Med Chem, 2015).

Key:
[1] = molecular target: DNA topoisomerase 2-alpha (Homo sapiens) (UniProt P11388); assay: Inhibition of recombinant human topoisomerase 2alpha assessed as relaxation of supercoiled plasmid DNA pBR322 at 20 uM incubated for 30 mins by agarose gel electrophoresis
HeLa = assay: Cytotoxicity against human HeLa cells measured after 2 days by MTT assay; type: functional, cell-based; settings: 48 h
[2] = molecular target: T1, DNA topoisomerase 1 (Homo sapiens) (UniProt P11387); assay: Potency index, ratio of compound activity to CPT activity for inhibition of recombinant human topoisomerase 1 at 20 uM
T1 sequence (whole entry): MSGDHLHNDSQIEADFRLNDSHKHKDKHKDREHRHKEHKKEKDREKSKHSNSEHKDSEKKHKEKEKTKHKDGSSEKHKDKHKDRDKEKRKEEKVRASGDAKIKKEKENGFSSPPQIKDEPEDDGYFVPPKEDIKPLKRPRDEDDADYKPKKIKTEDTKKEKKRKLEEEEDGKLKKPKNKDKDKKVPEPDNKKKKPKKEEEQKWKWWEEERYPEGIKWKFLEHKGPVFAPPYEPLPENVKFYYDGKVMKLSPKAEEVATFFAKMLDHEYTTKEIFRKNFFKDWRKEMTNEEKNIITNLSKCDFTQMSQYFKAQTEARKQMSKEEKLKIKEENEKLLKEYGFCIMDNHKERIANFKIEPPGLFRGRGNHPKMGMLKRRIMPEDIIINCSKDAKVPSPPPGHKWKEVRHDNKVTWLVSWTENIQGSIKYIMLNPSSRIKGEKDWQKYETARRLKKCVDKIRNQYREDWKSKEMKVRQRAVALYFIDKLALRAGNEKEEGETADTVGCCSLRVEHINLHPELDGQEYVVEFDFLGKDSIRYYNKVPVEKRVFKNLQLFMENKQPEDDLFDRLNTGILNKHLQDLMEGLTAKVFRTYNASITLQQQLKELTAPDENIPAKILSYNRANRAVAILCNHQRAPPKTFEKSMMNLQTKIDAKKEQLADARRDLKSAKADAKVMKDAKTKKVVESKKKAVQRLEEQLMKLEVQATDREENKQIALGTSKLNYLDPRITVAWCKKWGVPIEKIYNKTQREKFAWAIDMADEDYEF

[3] = molecular target: DNA topoisomerase 2-alpha (Homo sapiens) (UniProt P11388); assay: Inhibition of recombinant human topoisomerase 2alpha mediated decatenation using kDNA as substrate at 50 uM incubated for 30 mins by agarose gel electrophoresis
[4] = molecular target: T1, DNA topoisomerase 1 (Homo sapiens); assay: Potency index, ratio of compound activity to CPT activity for inhibition of recombinant human topoisomerase 1 at 100 uM
HCT-15 = assay: Cytotoxicity against human HCT15 cells measured after 2 days by MTT assay; type: functional, cell-based; settings: HCT-15, 48 h
[5] = molecular target: DNA topoisomerase 2-alpha (Homo sapiens) (UniProt P11388); assay: Inhibition of recombinant human topoisomerase 2alpha assessed as relaxation of supercoiled plasmid DNA pBR322 at 100 uM incubated for 30 mins by agarose gel electrophoresis
T47D = assay: Cytotoxicity against human T47D cells measured after 2 days by MTT assay; type: functional, cell-based; settings: 48 h
[6] = molecular target: T1, DNA topoisomerase 1 (Homo sapiens); assay: Inhibition of recombinant human topoisomerase 1 assessed as relaxation of supercoiled plasmid DNA pBR322 at 100 uM incubated for 30 mins by agarose gel electrophoresis
[7] = molecular target: DNA topoisomerase 2-alpha (Homo sapiens) (UniProt P11388); assay: Inhibition of recombinant human topoisomerase 2alpha mediated decatenation using kDNA as substrate at 100 uM incubated for 30 mins by agarose gel electrophoresis
[8] = molecular target: DNA topoisomerase 2-alpha (Homo sapiens) (UniProt P11388); assay: Potency index, ratio of compound activity to etoposide activity for inhibition of recombinant human topoisomerase 2alpha at 20 uM
[9] = molecular target: T1, DNA topoisomerase 1 (Homo sapiens); assay: Inhibition of recombinant human topoisomerase 1 assessed as relaxation of supercoiled plasmid DNA pBR322 at 20 uM incubated for 30 mins by agarose gel electrophoresis
[10] = molecular target: DNA topoisomerase 2-alpha (Homo sapiens) (UniProt P11388); assay: Potency index, ratio of compound activity to etoposide activity for inhibition of recombinant human topoisomerase 2alpha at 100 uM

DNA topoisomerase 2-alpha (Homo sapiens), sequence (P11388 whole entry): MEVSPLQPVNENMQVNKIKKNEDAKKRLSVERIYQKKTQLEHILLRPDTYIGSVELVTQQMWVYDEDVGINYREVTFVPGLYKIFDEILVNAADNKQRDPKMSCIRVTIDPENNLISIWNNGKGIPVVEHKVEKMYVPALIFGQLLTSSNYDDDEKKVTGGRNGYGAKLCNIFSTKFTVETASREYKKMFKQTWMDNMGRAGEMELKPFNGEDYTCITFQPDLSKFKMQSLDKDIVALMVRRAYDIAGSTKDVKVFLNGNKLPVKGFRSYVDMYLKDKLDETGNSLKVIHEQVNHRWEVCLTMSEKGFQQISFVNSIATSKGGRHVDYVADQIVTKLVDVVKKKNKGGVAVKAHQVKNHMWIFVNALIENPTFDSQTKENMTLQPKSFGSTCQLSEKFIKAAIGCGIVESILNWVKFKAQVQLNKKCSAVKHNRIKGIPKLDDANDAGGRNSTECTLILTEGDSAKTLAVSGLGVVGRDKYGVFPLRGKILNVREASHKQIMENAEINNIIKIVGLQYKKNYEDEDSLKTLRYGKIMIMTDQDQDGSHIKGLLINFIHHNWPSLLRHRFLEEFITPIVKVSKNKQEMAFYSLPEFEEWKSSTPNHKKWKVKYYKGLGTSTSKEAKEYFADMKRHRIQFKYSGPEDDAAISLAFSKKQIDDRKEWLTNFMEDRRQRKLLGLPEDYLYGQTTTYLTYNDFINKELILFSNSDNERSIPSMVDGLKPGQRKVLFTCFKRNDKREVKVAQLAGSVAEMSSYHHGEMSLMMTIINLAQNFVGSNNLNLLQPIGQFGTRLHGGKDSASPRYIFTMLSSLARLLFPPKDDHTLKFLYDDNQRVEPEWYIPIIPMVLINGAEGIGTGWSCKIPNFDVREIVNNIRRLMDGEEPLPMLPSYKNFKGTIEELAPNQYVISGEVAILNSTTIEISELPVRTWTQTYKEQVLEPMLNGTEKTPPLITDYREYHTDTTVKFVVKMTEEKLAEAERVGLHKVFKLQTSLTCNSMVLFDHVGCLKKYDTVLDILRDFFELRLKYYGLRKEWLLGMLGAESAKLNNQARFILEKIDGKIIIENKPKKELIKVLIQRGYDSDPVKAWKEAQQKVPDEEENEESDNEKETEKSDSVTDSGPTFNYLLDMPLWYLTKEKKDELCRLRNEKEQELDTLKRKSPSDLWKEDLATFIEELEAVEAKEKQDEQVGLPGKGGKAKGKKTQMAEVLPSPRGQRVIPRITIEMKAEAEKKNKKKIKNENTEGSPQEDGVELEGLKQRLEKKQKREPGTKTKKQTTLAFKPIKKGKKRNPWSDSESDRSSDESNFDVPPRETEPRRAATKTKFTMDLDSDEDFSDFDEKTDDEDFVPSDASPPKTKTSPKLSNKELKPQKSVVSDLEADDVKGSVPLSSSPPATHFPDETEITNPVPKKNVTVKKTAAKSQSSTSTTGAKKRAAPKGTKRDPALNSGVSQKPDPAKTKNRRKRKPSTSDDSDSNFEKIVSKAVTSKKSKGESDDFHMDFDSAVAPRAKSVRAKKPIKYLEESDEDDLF

SMILES	inhibition [1] [%]	IC50 (HeLa) [µM]	Ratio [2]	inhibition [3] [%]	Ratio [4]	IC50 (HCT-15) [µM]	inhibition [5] [%]	IC50 (T47D) [µM]	inhibition [6] [%]	inhibition [7] [%]	Ratio [8]	inhibition [9] [%]	Ratio [10]
O=c1[nH]c(-c2cccc3ccccc23)nc2ccc(N3CCOCC3)cc12	39.2	0.12	0.62	3.2	1.24	> 50	46.4	> 50	100	83.8	0.78	10.7	0.58
Cc1ccc2c(=O)[nH]c(-c3ccccc3N(C)C)nc2c1	41.9	43.8	0.19	–	0.19	12.8	28.1	4.43	82.1	–	0.84	5.3	0.35
COc1cccc(-c2nc3cc(C)ccc3c(=O)[nH]2)c1	25.2	8.94	2.6	–	1.29	4.85	43.6	> 50	100	–	0.5	80	0.54
Cc1c2ccncc2c(C)c2c1[nH]c1ccccc12	–	–	–	–	–	–	–	–	–	88.3	–	–	–
Cc1cccc(-c2nc3cc(C)ccc3c(=O)[nH]2)c1	24.9	11.2	1.83	–	1.29	21.1	40.4	> 50	100	–	0.5	56.3	0.5
Cc1ccc2c(=O)[nH]c(-c3ccccc3C)nc2c1	30.8	> 50	1.27	0	1.29	11.9	61.4	> 50	100	32.4	0.62	39.2	0.77
